The values that follow come from patent US9890185B2, “Urea derivatives useful as kinase inhibitors” (Respivert Limited, priority 2013, dated 2018).

Some results are limits rather than exact numbers.

In assay [1] the test system is PBMCs. The assay is described as follows: LPS-induced IL-8 release in PBMC cells (assay b). The settings on record: Homo sapiens, PBMC; LPS-stimulated PBMCs; read-out: IC50 Values for Inhibition of Cytokine Release, PBMCs IL-8. It counts as cell-based, human. In outline: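 Cytokines (TNFα, IL-8) in supernatants were quantified by sandwich ELISA after a 24 h challenge with 1 ng/mL E. coli LPS at 37° C, 5% CO2. Healthy-donor PBMCs had been exposed to compound for 2 h beforehand. IC50 values were fitted from the concentration-response curves.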

Assay [2] deals with GSK 3α (Homo sapiens (Human), UniProt P49840). The assay is described as follows: GSK 3α enzyme inhibition (FRET, Z-LYTE, Method 2). Type of assay: biochemical. Conditions: read-out: IC50 Values for Enzyme Inhibition, GSK3α. In outline:
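Human GSK3α (500 ng/mL) preincubated with compound (4, 0.4, 0.04 or 0.004 μg/mL) at RT for 2 h (Method 1) or 105 min (Method 2). Then FRET peptide (8 μM) and ATP (40 μM) added for 1 h, followed by protease development for 1 h. IC50 from the coumarin/fluorescein emission ratio relative to uninhibited control.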

Assay [3] has as its system d-U937 cells. Briefly: Accumulation of β catenin in d-U937 cells (assay m). Type of assay: cell-based, human. Conditions: test compound 1 μg/mL; percentage relative to Reference Compound at 1 μg/mL. As for the experimental part:
U937 cells, a human monocytic cell line, are differentiated into macrophage-type cells by incubation with PMA; (100 ng/mL) for between 48 to 72 hr. The cells are then incubated with either final concentrations of test compound or vehicle for 18 hr. The induction of β-catenin by the test compounds is stopped by replacing the media with 4% formaldehyde solution. Endogenous peroxide activity is neutralised by incubating with quenching buffer (100 μL, 0.1% sodium azide, 1% H2O2 in PBS with 0.05% Tween-20) for 20 min. The cells are washed with washing buffer (200 μL; PBS containing 0.05% Tween-20) and incubated with blocking solution (200 μL; 5% milk in PBS) for 1 hr, re-washed with washing buffer (200 μL) and then incubated overnight with anti-β-catenin antibody solution (50 μL) in 1% BSA/PBS (BD, Oxford, UK).
After washing with washing buffer (3×200 μL; PBS containing 0.05% Tween-20), cells are incubated with an HRP-conjugated secondary antibody solution (100 μL) in 1% BSA/PBS (Dako, Cambridge, UK) and the resultant signal is determined colourimetrically (OD: 450 nm with a reference wavelength of 655 nm) using TMB substrate (50 μL; R&D Systems, Abingdon, UK). This reaction is stopped by addition of 1N H2SO4 solution (50 μL). Cells are then washed with washing buffer and 2% crystal violet solution (50 μL) is applied for 30 min. After washing with washing buffer (3×200 μL), 1% SDS (100 μL) is added to each well and the plates are shaken lightly for 1 hr prior to measuring the absorbance at 595 nm (Varioskan® Flash, Thermo-Fisher Scientific).
The measured OD450-655 readings are corrected for cell number by dividing the OD450-655 by the OD595 readings.

Chain of GSK 3α (P49840 whole entry): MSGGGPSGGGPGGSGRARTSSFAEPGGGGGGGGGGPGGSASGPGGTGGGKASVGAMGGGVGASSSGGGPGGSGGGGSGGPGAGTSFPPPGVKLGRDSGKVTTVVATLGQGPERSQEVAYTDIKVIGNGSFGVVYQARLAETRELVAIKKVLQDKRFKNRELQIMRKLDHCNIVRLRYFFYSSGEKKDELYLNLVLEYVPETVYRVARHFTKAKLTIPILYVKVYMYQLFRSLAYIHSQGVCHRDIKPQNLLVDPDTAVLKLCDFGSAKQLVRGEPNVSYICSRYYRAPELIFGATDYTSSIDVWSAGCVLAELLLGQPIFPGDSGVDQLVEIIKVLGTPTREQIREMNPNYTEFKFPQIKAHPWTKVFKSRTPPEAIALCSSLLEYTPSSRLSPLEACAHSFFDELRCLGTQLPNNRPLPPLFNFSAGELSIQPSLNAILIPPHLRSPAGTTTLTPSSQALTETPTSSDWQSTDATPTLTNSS

Turning to `COc1c(CC(N)=O)cc(C(C)(C)C)cc1NC(=O)Nc1ccc(Oc2ccnc(Nc3ccccc3)c2)c(F)c1F` [38(l), 2-(5-(tert-Butyl)-3-(3-(2,3-difluoro-4-((2-(phenylamino)pyridin-4-yl)oxy)phenyl)ureido)-2-methoxyphenyl)acetamide], the IC50 in assay [1] is 5.9 nM; in assay [2], 472 nM.
On to `COc1c(CNC(C)=O)cc(C(C)(C)C)cc1NC(=O)Nc1ccc(Oc2ccnc(Nc3cc(C)cc(C)c3)c2)c2ccccc12` [38(p), N-(5-(tert-Butyl)-3-(3-(4-((2-((3,5-dimethylphenyl)amino)pyridin-4-yl)oxy)naphthalen-1-yl)ureido)-2-methoxybenzyl)acetamide], for which the IC50 in assay [1] was 7.2 nM; in assay [2], above 15800 nM.
For `COCCOCCOCCNC(=O)c1cc(Nc2cc(Oc3ccc(NC(=O)Nc4cc(C(C)(C)C)cc(C[S+](C)[O-])c4OC)c4ccccc34)ccn2)cc(OC)c1` (centres unmarked) [38(z), 3-((4-((4-(3-(5-(tert-Butyl)-2-methoxy-3-((methylsulfinyl)methyl)phenyl)ureido)naphthalen-1-yl)oxy)pyridin-2-yl)amino)-5-methoxy-N-(2-(2-(2-methoxyethoxy)ethoxy)ethyl)benzamide], the values for the IC50 in assay [1] and in assay [2] were 0.6 nM and 789 nM, respectively.
The matching figures for `COc1cc(Nc2cc(Oc3ccc(NC(=O)Nc4cc(C(C)(C)C)cc(P(C)(C)=O)c4OC)c4ccccc34)ccn2)ccc1C(=O)N1CCN(C)CC1` [79(a), 1-(5-tert-Butyl-3-dimethylphosphoryl-2-methoxy-phenyl)-3-[4-[[2-[3-methoxy-4-(4-methylpiperazine-1-carbonyl)anilino]-4-pyridyl]oxy]-1-naphthyl]urea]: 5.1 nM and 480 nM.
Consider `COc1cc(Nc2cc(Oc3ccc(NC(=O)Nc4cc(C(C)(C)C)cc(P(C)(C)=O)c4OC)c4ccccc34)ccn2)ccc1C(=O)NC1CCN(C)CC1` [79(b), 4-[[4-[[4-[(5-tert-Butyl-3-dimethylphosphoryl-2-methoxy-phenyl)carbamoylamino]-1-naphthyl]oxy]-2-pyridyl]amino]-2-methoxy-N-(1-methyl-4-piperidyl)benzamide], for which the IC50 stood at 7.4 nM in assay [1] and 1880 nM in assay [2].
For `COc1cc(Nc2cc(Oc3ccc(NC(=O)Nc4cc(C(C)(C)C)cc(P(C)(C)=O)c4OC)c4ccccc34)ccn2)ccc1C(=O)NCCN(C)C` [79(c), 4-[[4-[[4-[(5-tert-Butyl-3-dimethylphosphoryl-2-methoxy-phenyl)carbamoylamino]-1-naphthyl]oxy]-2-pyridyl]amino]-N-(2-dimethylaminoethyl)-2-methoxy-benzamide] the same measures were 7 nM and 1770 nM.
Consider `CNC(=O)c1cc(Nc2cc(Oc3ccc(NC(=O)Nc4cc(C(C)(C)C)cc(P(C)(C)=O)c4OC)c4ccccc34)ccn2)cc(OCCN2CCOCC2)c1` [79(f), 3-[[4-[[4-[(5-tert-Butyl-3-dimethylphosphoryl-2-methoxy-phenyl)carbamoylamino]-1-naphthyl]oxy]-2-pyridyl]amino]-N-methyl-5-(2-morpholinoethoxy)benzamide], for which the IC50 in assay [1] is 3.9 nM; in assay [2], 957 nM.
The matching figures for `COCCOCCOCCOc1cc(Nc2cc(Oc3ccc(NC(=O)Nc4cc(C(C)(C)C)cc(P(C)(C)=O)c4OC)c4ccccc34)ncn2)cc(OC)c1` [Example 4, 1-(5-(tert-Butyl)-3-(dimethylphosphoryl)-2-methoxyphenyl)-3-(4-((6-((3-methoxy-5-(2-(2-(2-methoxyethoxy)ethoxy)ethoxy)phenyl)amino)pyrimidin-4-yl)oxy)naphthalen-1-yl)urea]: 5.6 nM and 4100 nM.
For `COc1cc(Nc2nccc(Oc3ccc(NC(=O)Nc4cc(C(C)(C)C)cc(P(C)(C)=O)c4OC)c4ccccc34)n2)cc(P(C)(C)=O)c1` [Example 21, 1-(5-(tert-Butyl)-3-(dimethylphosphoryl)-2-methoxyphenyl)-3-(4-((2-((3-(dimethylphosphoryl)-5-methoxyphenyl)amino)pyrimidin-4-yl)oxy)naphthalen-1-yl)urea] the same measures were 3.2 nM and 282 nM.
For the compound `COc1c(NC(=O)Nc2ccc(Oc3ccnc(Nc4cccc(N=S(C)(C)=O)c4)n3)c3ccccc23)cc(C(C)(C)C)cc1P(C)(C)=O` [Example 22, 1-(5-(tert-Butyl)-3-(dimethylphosphoryl)-2-methoxyphenyl)-3-(4-((2-((3-((dimethyl(oxo)-lambda-6-sulfanylidene)amino)phenyl)amino)pyrimidin-4-yl)oxy)naphthalen-1-yl)urea], the IC50 is 3.3 nM in assay [1] and 280 nM in assay [2].
For `COc1c(NC(=O)Nc2ccc(Oc3ccnc(Nc4ccccc4)c3)c3ccccc23)cc(C(C)(C)C)cc1C(=O)NCCN1CCNCC1` [Example 23, 5-(tert-Butyl)-2-methoxy-3-(3-(4-((2-(phenylamino)pyridin-4-yl)oxy)naphthalen-1-yl)ureido)-N-(2-(piperazin-1-yl)ethyl)benzamide], the IC50 in assay [1] was 6.8 nM; in assay [2], 7940 nM.
For `COc1c(NC(=O)Nc2ccc(Oc3ccnc(NC(=O)CN4C[C@@H](C)O[C@@H](C)C4)c3)c3ccccc23)cc(C(C)(C)C)cc1P(C)(C)=O` [Example 26, N-(4-((4-(3-(5-(tert-Butyl)-3-(dimethylphosphoryl)-2-methoxyphenyl)ureido)naphthalen-1-yl)oxy)pyridin-2-yl)-2-(cis-2,6-dimethylmorpholino)acetamide] the same measures were 2.2 nM and 249 nM.
For `COc1c(NC(=O)Nc2ccc(Oc3ccnc(NC4CCOCC4)n3)c3ccccc23)cc(C(C)(C)C)cc1P(C)(C)=O` [Example 31, 1-(5-(tert-Butyl)-3-(dimethylphosphoryl)-2-methoxyphenyl)-3-(4-((2-((tetrahydro-2H-pyran-4-yl)amino)pyrimidin-4-yl)oxy)naphthalen-1-yl)urea] the same measures were 2.6 nM and 186 nM.
For `CC(C)(C)c1cc(NC(=O)Nc2ccc(Oc3ccnc(Nc4ccccc4)c3)c3ccccc23)c(O)c(P(C)(C)=O)c1` [Example 39, 1-(5-(tert-Butyl)-3-(dimethylphosphoryl)-2-hydroxyphenyl)-3-(4-((2-(phenylamino)pyridin-4-yl)oxy)naphthalen-1-yl)urea] the same measures were 31.4 nM and above 12600 nM.
For `COc1c(NC(=O)Nc2ccc(Oc3ccnc(Nc4cc(C)c5[nH]ncc5c4)n3)c3ccccc23)cc(C(C)(C)C)cc1[S+](C)[O-]` (centres unmarked) [Example 74, 1-(5-(tert-Butyl)-2-methoxy-3-(methylsulfinyl)phenyl)-3-(4-((2-((7-methyl-1H-indazol-5-yl)amino)pyrimidin-4-yl)oxy)naphthalen-1-yl)urea], the values for the IC50 in assay [1] and in assay [2] were 1.6 nM and 1230 nM, respectively.
For `COc1cc(Nc2cc(Oc3ccc(NC(=O)Nc4cc(C(C)(C)C)cc(P(C)(C)=O)c4OC)c4ccccc34)ccn2)ccc1C(=O)O` [Example 76, 4-((4-((4-(3-(5-(tert-Butyl)-3-(dimethylphosphoryl)-2-methoxyphenyl)ureido)naphthalen-1-yl)oxy)pyridin-2-yl)amino)-2-methoxybenzoic acid] the same measures were 41.5 nM and 70 nM.
The matching figures for `CNC(=O)c1cc(CN2CCN(C)CC2)cc(Nc2cc(Oc3ccc(NC(=O)Nc4cc(C(C)(C)C)cc(P(C)(C)=O)c4OC)c4ccccc34)ccn2)c1` [Example 78, 3-((4-((4-(3-(5-(tert-Butyl)-3-(dimethylphosphoryl)-2-methoxyphenyl)ureido)naphthalen-1-yl)oxy)pyridin-2-yl)amino)-N-methyl-5-((4-methylpiperazin-1-yl)methyl)benzamide]: 23 nM and 773 nM.
For `COCC(=O)Nc1cc(Oc2ccc(NC(=O)Nc3cc(C(C)(C)C)nn3-c3ccc(C)cc3)c3ccccc23)ccn1` [Reference Compound, N-(4-(4-(3-(3-tert-butyl-1-p-tolyl-1H-pyrazol-5-yl)ureido)naphthalen-1-yloxy)pyridin-2-yl)-2-methoxyacetamide, reference compound], in assay [3], the “% β-catenin induction” value amounted to 100%.

In general, IC50 refers to the concentration that inhibits the measured activity by half.
